Legend:
Experiment in all cases: Spectrophotometric assay of hydrolytic activity (kinetic parameters)
Format in all cases: biochemical
[1] = target: hydrolase variant Seq ID No: 15 (site-directed mutant) (uncultured bacterium, UniProt A0ACD6BAS6); details: potassium phosphate buffer, pH 7.5, 22 °C, 310 nm (BzdC) or 290 nm (dC)
Excerpt: (§1) Mutations in the hydrolase's genes were introduced using methodology based on "Phusion™ Site-Directed Mutagenesis Kit" (Thermo Fisher Scientific). For specific mutagenesis, primer pairs meant to amplify the whole plasmid with the target protein gene, where one primer has miss-matched base pairs in the middle, were created (Fw/Rv): […]/[…] (SEQ ID NO:10); [formula] [formula] […]/[…] (SEQ ID NO:13); [formula] [formula] […]/[…] and […]/[…] (SEQ ID NO: 16, SEQ ID NO: 17, SEQ ID NO: 18); [formula] […]/[…] (SEQ ID NO: 21); [formula] […]/[…] (SEQ ID NO: 23); […]/[…] (SEQ ID NO: 24).
(§2) For the spectrophotometric assay, the reaction was started by adding an appropriate amount of protein to potassium phosphate buffer, pH 7.5 supplemented with 0.3, 0.15, 0.1, 0.075, 0.05, 0.0375, 0.025, 0.0125 mM N^4-benzoyl-2'-deoxycytidine, or 1, 0.8, 0.5, 0.4, 0.25, 0.2, 0.1, 0.05 mM 2'-deoxycytidine. Then, decreases in absorbance at either 310 for N^4-benzoyl-2'-deoxycytidine or 290 nm for 2'-deoxycytidine were recorded at 22 °C. Kinetic parameters (Table x) were calculated using Imfit-py 1.0.2 software fitting the experimental data to a simple Michaelis-Menten kinetics scheme. Table 5. Kinetic parameters of hydrolases. Substrate: BzdC - N4-benzoyl-2'-deoxycytidine; dC-2'-deoxycytidine.

[2] = target: hydrolase variant Seq ID No:13 (site-directed mutant) (uncultured bacterium, UniProt A0ACD6BAS6, form not given/G85I); details: potassium phosphate buffer, pH 7.5, 22 °C; 310 nm (BzdC) or 290 nm (dC)
Chain of hydrolase variant Seq ID No:13 (site-directed mutant) (A0ACD6BAS6 entry or part of it G85I, form open): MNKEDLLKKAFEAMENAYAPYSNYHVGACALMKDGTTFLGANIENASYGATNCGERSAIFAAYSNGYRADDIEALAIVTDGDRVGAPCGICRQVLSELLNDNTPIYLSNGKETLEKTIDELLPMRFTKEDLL
Excerpt: as §1, §2

[3] = target: hydrolase variant Seq ID No: 11 (site-directed mutant) (uncultured bacterium, UniProt A0ACD6BAS6); details: potassium phosphate buffer, pH 7.5, 22 °C, 310 nm
Chain of hydrolase variant Seq ID No: 11 (site-directed mutant) (A0ACD6BAS6 entry or part of it, change not shown): as the sequence (A0ACD6BAS6 entry or part of it G85I, form open) above
Excerpt: as §1, §2

[4] = target: hydrolase variant Seq ID No: 12 (site-directed mutant) (uncultured bacterium, UniProt A0ACD6BAS6); details: potassium phosphate buffer, pH 7.5, 22 °C; 310 nm; unit not given
Chain of hydrolase variant Seq ID No: 12 (site-directed mutant) (A0ACD6BAS6 entry or part of it, change not shown): as the sequence (A0ACD6BAS6 entry or part of it G85I, form open) above
Excerpt: as §1, §2

[5] = target: hydrolase variant Seq ID No: 10 (site-directed mutant) (uncultured bacterium, UniProt A0ACD6BAS6, DEL127-130, form not given); details: potassium phosphate buffer, pH 7.5, 22 °C, 310 nm
Chain of hydrolase variant Seq ID No: 10 (site-directed mutant) (A0ACD6BAS6 entry or part of it DEL127-130): as the sequence (A0ACD6BAS6 entry or part of it G85I, form open) above
Excerpt: as §1, §2

[6] = test system: hydrolase Seq ID No: 3 (metagenomic hydrolase); details: potassium phosphate buffer, pH 7.5, 22 °C
Description: as §2

[7] = target: hydrolase Seq ID No: 1 (metagenomic, wild-type hydrolase) (uncultured bacterium, UniProt A0ACD6BAS6); details: potassium phosphate buffer, pH 7.5, 22 °C
Chain of hydrolase Seq ID No: 1 (metagenomic, wild-type hydrolase) (A0ACD6BAS6 entry or part of it): as the sequence (A0ACD6BAS6 entry or part of it G85I, form open) above
Description: as §2

[8] = 310 nm (BzdC) or 290 nm (dC), unit not given
[9] = absorbance decrease at 310 nm (BzdC) or 290 nm (dC), Michaelis-Menten fit

Chain of hydrolase variant Seq ID No: 15 (site-directed mutant) (A0ACD6BAS6 entry or part of it, change not shown): as the sequence (A0ACD6BAS6 entry or part of it G85I, form open) above

In the case of O=C(Nc1ccn([C@H]2C[C@H](O)[C@@H](CO)O2)c(=O)n1)c1ccccc1 [BzdC, N4-benzoyl-2'-deoxycytidine], the kcat [1] is reported as “(1.22 ± 0.09) × 10^-2 s^-1”, the Vmax ([1]; unit not given) is reported as “(3.17 ± 0.25) × 10^-5” and the kcat [2] is reported as “(2.36 ± 0.01) × 10 ^-1 s^-1”. For the same compound, the kcat [3] was “(3.88 ± 0.80) × 10^-2 s^-1”, the Vmax ([3]; unit not given) was “(4.56 ± 0.093) × 10^-5” and the Vmax [4] was “(1.19 ± 0.15) × 10^-4”. For the same compound, the kcat [5] was “(5.41 ± 0.23) × 10^-2 s^-1”, the Vmax ([5]; unit not given) was “(5.49 ± 0.23) × 10^-5” and the kcat ([6]; 310 nm (BzdC) or 290 nm (dC)) was “(3.81 +/- 0.24) × 10 ^-1 s^-1”. For the same compound, the Vmax [6, 8] was “(6.55 ± 0.41) × 10^-5”, the Km [6, 9] was 46.5 µM and the kcat ([7]; 310 nm (BzdC) or 290 nm (dC)) was “(5.04 ± 0.4) ×10^-1 s^-1”. The Vmax [7, 8] was “(1.00 ± 0.08) × 10^-4” and the Km [7, 9] was 115 µM.

Reference: patent EP4299736A2, “HYDROLASES AND USES THEREOF” (Vilnius University, priority 2022, dated 2024)
